This is an account of results in US10053461B2 (Hoffmann-La Roche Inc., priority 2015, dated 2018).

pIC50: −log10 of the molar value.

This test has as its system HBsAg. Briefly: microbe, parasite or virus in culture. As to conditions: Hepatitis B virus, HepG2.2.15.
Description: HepG2.2.15 cells (Acs et al. Proc Natl Acad Sci USA, 84, (1987), 4641-4), a constitutively HBV-expressing cell line were cultured in DMEM+Glutamax-I medium (Invitrogen, Carlsbad, Calif., USA), supplemented with 10% fetal bovine serum (Invitrogen) and G418 (Invitrogen) at a final concentration of 200 mg/L and maintained in 5% CO2 at 37° C.
HepG2.2.15 cells were seeded in duplicate into white, 96-well plates at 1.5×10^4 cells/well. The cells were treated with a three-fold serial dilution series of the compounds in DMSO. The final DMSO concentration in all wells was 1% and DMSO was used as no drug control.
The HBsAg chemiluminescence immunoassay (CLIA) kit (Autobio Diagnostics Co., Zhengzhou, China, Catalog number: CL0310-2) was used to measure the levels of secreted HBV antigens semi-quantitatively. For the detection 50 μL/well culture supernatant was used and HBsAg was quantified using HBsAg chemiluminescence immunoassay (CLIA) kit (Autobio Diagnostics Co., Zhengzhou, China, Catalog number: CL0310-2), 50 μL of the supernatant was transferred to the CLIA assay plate and 50 μL of enzyme conjugate reagent was added into each well. The plates were sealed and gently agitated for 1 hour at room temperature. The supernatant-enzyme-mixture was discarded and wells were washed 6 times with 300 μL of PBS. The residual liquid was removed by plating the CLIA plate right side down on absorbent tissue paper. 25 μL of substrates A and B were added to each well. Luminance was measured using a luminometer (Mithras LB 940 Multimode Microplate Reader) after 10 minutes incubation. Dose-response curves were generated and the IC50 value was extrapolated by using the E-WorkBook Suite (ID Business Solutions Ltd., Guildford, UK). The IC50 was defined as the compound concentration (or conditioned media log dilution) at which HBsAg secretion was reduced by 50% compared to the no drug control.
The compounds of the present invention were tested for their activity to inhibit HBsAg as described herein.
Turning to `COCCCOc1cc2c(cc1OC)-c1cc(=O)c(C(=O)O)cn1[C@H]1[C@@H]2CCC1(C)C` (racemic) [Example 2, cis-10-methoxy-11-(3-methoxypropoxy)-3,3-dimethyl-7-oxo-1,2,3,3a,7,12b-hexahydrocyclopenta[c]pyrido[2,1-a]isoquinoline-6-carboxylic acid], the pIC50 is 9.00. In the case of `COc1cc2c(cc1OCc1ccccc1)[C@H]1CCCC[C@@H]1n1cc(C(=O)O)c(=O)cc1-2` (racemic) [Example 31, Trans-12-benzyloxy-11-methoxy-8-oxo-1,2,3,4,4a,13b-hexahydropyrido[1,2-f]phenanthridine-7-carboxylic acid], the pIC50 was 6.92. In turn, `COCCCOc1cc2c(cc1OC)-c1cc(=O)c(C(=O)O)cn1[C@@H]1CCSC[C@@H]21` (racemic) [Example 35, Trans-11-methoxy-12-(3-methoxypropoxy)-8-oxo-1,3,4,4a,8,13b-hexahydropyrido[2,1-a]thiopyrano[4,3-c]isoquinoline-7-carboxylic acid] showed a pIC50 of 6.96. `COCCCOc1cc2c(cc1OC)-c1cc(=O)c(C(=O)O)cn1[C@@H]1CCSC[C@H]21` (racemic) [Example 36, cis-11-methoxy-12-(3-methoxypropoxy)-8-oxo-1,3,4,4a,8,13b-hexahydropyrido[2,1-a]thiopyrano[4,3-c]isoquinoline-7-carboxylic acid] gave a pIC50 of 7.55.

With `COCCCOc1cc2c(cc1OC)-c1cc(=O)c(C(=O)O)cn1[C@H]1[C@H]2CCC1(C)C` (relative stereo) [Example 1, Trans-10-methoxy-11-(3-methoxypropoxy)-3,3-dimethyl-7-oxo-1,2,3,3a,7,12b-hexahydrocyclopenta[c]pyrido[2,1-a]isoquinoline-6-carboxylic acid], the pIC50 was 8.00.

Compound `COc1cc2c(cc1O)[C@H]1CCC(C)(C)[C@H]1n1cc(C(=O)O)c(=O)cc1-2` (relative stereo) [Example 6, Cis-11-hydroxy-10-methoxy-3,3-dimethyl-7-oxo-1,2,3,3a,7,12b-hexahydrocyclopenta[c]pyrido[2,1-a]isoquinoline-6-carboxylic acid] had a pIC50 of 7.08. `COc1cc2c(cc1OC)[C@H]1CCC(C)(C)[C@H]1n1cc(C(=O)O)c(=O)cc1-2` (relative stereo) [Example 7, Cis-10,11-dimethoxy-3,3-dimethyl-7-oxo-1,2,3,3a,7,12b-hexahydrocyclopenta[c]pyrido[2,1-a]isoquinoline-6-carboxylic acid]: the pIC50 was 8.30.

For `COc1cc2c(cc1OCC(F)(F)F)[C@H]1CCC(C)(C)[C@H]1n1cc(C(=O)O)c(=O)cc1-2` (relative stereo) [Example 8, Cis-10-methoxy-3,3-dimethyl-7-oxo-11-(2,2,2-trifluoroethoxy)-1,2,3,3a,7,12b-hexahydrocyclopenta[c]pyrido[2,1-a]isoquinoline-6-carboxylic acid], the pIC50 was 8.52. Compound `COc1cc2c(cc1OCC(C)C)[C@H]1CCC(C)(C)[C@H]1n1cc(C(=O)O)c(=O)cc1-2` (relative stereo) [Example 9, Cis-11-isobutoxy-10-methoxy-3,3-dimethyl-7-oxo-1,2,3,3a,7,12b-hexahydrocyclopenta[c]pyrido[2,1-a]isoquinoline-6-carboxylic acid] showed a pIC50 of 9.00.

As for `COc1cc2c(cc1OCC1CC1)[C@H]1CCC(C)(C)[C@H]1n1cc(C(=O)O)c(=O)cc1-2` (relative stereo) [Example 10, Cis-11-(cyclopropylmethoxy)-10-methoxy-3,3-dimethyl-7-oxo-1,2,3,3a,7,12b-hexahydrocyclopenta[c]pyrido[2,1-a]isoquinoline-6-carboxylic acid], the pIC50 is 9.00.

Turning to `COCCOc1cc2c(cc1OC)-c1cc(=O)c(C(=O)O)cn1[C@H]1[C@@H]2CCC1(C)C` (relative stereo) [Example 11, Cis-10-methoxy-11-(2-methoxyethoxy)-3,3-dimethyl-7-oxo-1,2,3,3a,7,12b-hexahydrocyclopenta[c]pyrido[2,1-a]isoquinoline-6-carboxylic acid], the pIC50 is 8.40. With `COc1cc2c(cc1OCCCC#N)[C@H]1CCC(C)(C)[C@H]1n1cc(C(=O)O)c(=O)cc1-2` (relative stereo) [Example 12, Cis-11-(3-cyanopropoxy)-10-methoxy-3,3-dimethyl-7-oxo-1,2,3,3a,7,12b-hexahydrocyclopenta[c]pyrido[2,1-a]isoquinoline-6-carboxylic acid], the pIC50 was 8.40. Take `COc1cc2c(cc1OCCCO)[C@H]1CCC(C)(C)[C@H]1n1cc(C(=O)O)c(=O)cc1-2` (relative stereo) [Example 13, Cis-11-(3-hydroxypropoxy)-10-methoxy-3,3-dimethyl-7-oxo-1,2,3,3a,7,12b-hexahydrocyclopenta[c]pyrido[2,1-a]isoquinoline-6-carboxylic acid]: the pIC50 is 8.30.

On to `COc1cc2c(cc1OCC(C)(C)CO)[C@H]1CCC(C)(C)[C@H]1n1cc(C(=O)O)c(=O)cc1-2` (relative stereo) [Example 14, Cis-11-(3-hydroxy-2,2-dimethylpropoxy)-10-methoxy-3,3-dimethyl-7-oxo-1,2,3,3a,7,12b-hexahydrocyclopenta[c]pyrido[2,1-a]isoquinoline-6-carboxylic acid], for which the pIC50 is 8.52.

`COc1cc2c(cc1OCCCN1CCOCC1)[C@H]1CCC(C)(C)[C@H]1n1cc(C(=O)O)c(=O)cc1-2` (relative stereo) [Example 15, Cis-10-methoxy-3,3-dimethyl-11-(3-morpholinopropoxy)-7-oxo-1,2,3,3a,7,12b-hexahydrocyclopenta[c]pyrido[2,1-a]isoquinoline-6-carboxylic acid]: the pIC50 was 8.22.

The compound `COc1cc2c(cc1OCCCN1CCCC1)[C@H]1CCC(C)(C)[C@H]1n1cc(C(=O)O)c(=O)cc1-2` (relative stereo) [Example 16, Cis-10-methoxy-3,3-dimethyl-7-oxo-11-(3-(pyrrolidin-1-yl)propoxy)-1,2,3,3a,7,12b-hexahydrocyclopenta[c]pyrido[2,1-a]isoquinoline-6-carboxylic acid] showed a pIC50 of 6.89. Compound `COc1cc2c(cc1OCCCN1CCCC1=O)[C@H]1CCC(C)(C)[C@H]1n1cc(C(=O)O)c(=O)cc1-2` (relative stereo) [Example 17, Cis-10-methoxy-3,3-dimethyl-7-oxo-11-(3-(2-oxopyrrolidin-1-yl)propoxy)-1,2,3,3a,7,12b-hexahydrocyclopenta[c]pyrido[2,1-a]isoquinoline-6-carboxylic acid] showed a pIC50 of 7.60.

With `CCOC(=O)CCCOc1cc2c(cc1OC)-c1cc(=O)c(C(=O)O)cn1[C@H]1[C@@H]2CCC1(C)C` (relative stereo) [Example 18, Cis-11-(4-ethoxy-4-oxobutoxy)-10-methoxy-3,3-dimethyl-7-oxo-1,2,3,3a,7,12b-hexahydrocyclopenta[c]pyrido[2,1-a]isoquinoline-6-carboxylic acid], the pIC50 is 8.00. Consider `COc1cc2c(cc1OCCCC(=O)O)[C@H]1CCC(C)(C)[C@H]1n1cc(C(=O)O)c(=O)cc1-2` (relative stereo) [Example 19, Cis-11-(3-carboxypropoxy)-10-methoxy-3,3-dimethyl-7-oxo-1,2,3,3a,7,12b-hexahydrocyclopenta[c]pyrido[2,1-a]isoquinoline-6-carboxylic acid], for which the pIC50 was 6.30.

In the case of `COc1cc2c(cc1OCCCSC)[C@H]1CCC(C)(C)[C@H]1n1cc(C(=O)O)c(=O)cc1-2` (relative stereo) [Example 20, Cis-10-methoxy-3,3-dimethyl-11-(3-(methylthio)propoxy)-7-oxo-1,2,3,3a,7,12b-hexahydrocyclopenta[c]pyrido[2,1-a]isoquinoline-6-carboxylic acid], the pIC50 is 8.70. Compound `COc1cc2c(cc1OCCCS(C)(=O)=O)[C@H]1CCC(C)(C)[C@H]1n1cc(C(=O)O)c(=O)cc1-2` (relative stereo) [Example 21, Cis-10-methoxy-3,3-dimethyl-11-(3-(methylsulfonyl)propoxy)-7-oxo-1,2,3,3a,7,12b-hexahydrocyclopenta[c]pyrido[2,1-a]isoquinoline-6-carboxylic acid] showed a pIC50 of 7.77. The compound `COc1cc2c(cc1OCCCCCCO)[C@H]1CCC(C)(C)[C@H]1n1cc(C(=O)O)c(=O)cc1-2` (relative stereo) [Example 22, Cis-11-((6-hydroxyhexyl)oxy)-10-methoxy-3,3-dimethyl-7-oxo-1,2,3,3a,7,12b-hexahydrocyclopenta[c]pyrido[2,1-a]isoquinoline-6-carboxylic acid] showed a pIC50 of 9.00.

For the compound `COc1cc2c(cc1OCCCCCCNC(=O)OC(C)(C)C)[C@H]1CCC(C)(C)[C@H]1n1cc(C(=O)O)c(=O)cc1-2` (relative stereo) [Example 23, Cis-11-((6-((tert-butoxycarbonyl)amino)hexyl)oxy)-10-methoxy-3,3-dimethyl-7-oxo-1,2,3,3a,7,12b-hexahydrocyclopenta[c]pyrido[2,1-a]isoquinoline-6-carboxylic acid], the pIC50 is 8.70.

As for `COc1cc2c(cc1OCCCCCCN)[C@H]1CCC(C)(C)[C@H]1n1cc(C(=O)O)c(=O)cc1-2` (relative stereo) [Example 24, Cis-11-((6-aminohexyl)oxy)-10-methoxy-3,3-dimethyl-7-oxo-1,2,3,3a,7,12b-hexahydrocyclopenta[c]pyrido[2,1-a]isoquinoline-6-carboxylic acid], the pIC50 is 7.70. Compound `COc1cc2c(cc1OCCCCCCNC(C)=O)[C@H]1CCC(C)(C)[C@H]1n1cc(C(=O)O)c(=O)cc1-2` (relative stereo) [Example 25, Cis-11-((6-acetamidohexyl)oxy)-10-methoxy-3,3-dimethyl-7-oxo-1,2,3,3a,7,12b-hexahydrocyclopenta[c]pyrido[2,1-a]isoquinoline-6-carboxylic acid] showed a pIC50 of 8.22. The compound `COc1cc2c(cc1OCCCCCCNS(C)(=O)=O)[C@H]1CCC(C)(C)[C@H]1n1cc(C(=O)O)c(=O)cc1-2` (relative stereo) [Example 26, Cis-10-methoxy-3,3-dimethyl-11-((6-(methylsulfonamido)hexyl)oxy)-7-oxo-1,2,3,3a,7,12b-hexahydrocyclopenta[c]pyrido[2,1-a]isoquinoline-6-carboxylic acid] had a pIC50 of 8.70.
